# Assay results taken from patent US20130035326A1 (AMBIT BIOSCIENCES CORPORATION, priority 2009, published 2013).
# Assays:
# MV4-11 cells = assay: MV4-11 cell proliferation assay (Alamar Blue); assay type: cell-based; conditions: Homo sapiens, MV4-11, 72 h, 3 days incubation
# Experimental: The compounds disclosed herein were tested in an MV4-11 cell proliferation assay to determine their cellular potency against Flt3. MV4-11 cells carry ITD mutation within juxtamembrane domain of Flt3 kinase which renders the kinase constitutively active. […] This assay measures the potency of compounds as Flt3 inhibitors by measuring the reduction of Alamar Blue reagent by viable cells.
# MV4-11 cells were grown in an incubator at 37° C. under 5% CO2 in Iscove's media (Celgro) with 10% FBS. The cell density was kept between 1e5 and 8e5 cells/mL.
# On day one of the experiment, cells were harvested and spun at 500 g for 5 min at 4° C., the supernatant aspirated and the cells resuspended in Iscove's media with 0.5% FBS. Cell density was maintained at 7.5e5 to achieve maximum viability of the cells. The resuspended cells were incubated at 37° C. in 5% CO2 overnight.
# On day two of the experiment, cells were diluted to 6.4e5/mL with Iscove's media with 0.5% FBS. 100 μL of the cell suspension (64,000 cells) were aliquoted into each well of a 96-well TC-treated plate. Compounds were added at 9 different concentrations, with half-log intervals alongside a control reference compound serving as a positive control. Final DMSO concentration was kept at 0.5% and final volume at 200 μL. The cells were then incubated at 37° C. under 5% CO2 for 3 days.
# On day five of the experiment, 40 μL of Alamar Blue reagent was added to each well and the mixture was allowed to incubate for 3 hours. Alamar Blue fluorescence was measured using SoftMax Pro software at 560 nm (excitation) and 590 nm (emission). IC50s were generated as an average of duplicates and represents the concentration of test compound that achieves 50% inhibition of cellular proliferation compared to negative control.
# CSF-1R kinase = molecular target: T1, CSF-1R kinase (Homo sapiens, UniProt P07333); assay: Competition binding assay, CSF-1R Kd
# T1 construct: made in house; host or cells: T7 phage display or HEK-293 cells
# Experimental: (§1) In certain embodiments, competition binding assays were performed as described in Fabian et al., Nature Biotechnology 2005, 23,329-336.
# (§2) Competition binding assays used herein were developed, validated and performed as described in Fabian et al., Nature Biotechnology 2005, 23,329-336. Kinases were produced as fusions to T7 phage (See, Fabian et al. or WO04/015142) or alternatively, the kinases were expressed in HEK-293 cells and subsequently tagged with DNA for PCR detection (See, WO08/005,310). For the binding assays, streptavidin-coated magnetic beads were treated with biotinylated affinity ligands for 30 min at room temperature to generate affinity resins. The liganded beads were blocked with excess biotin and washed with blocking buffer (SeaBlock (Pierce), 1% BSA, 0.05% Tween 20, 1 mM DTT) to remove unbound ligand and to reduce non-specific binding. Binding reactions were assembled by combining kinase, liganded affinity beads, and test compounds in 1× binding buffer (20% SeaBlock, 0.17×PBS, 0.05% Tween 20, 6 mM DTT). Test compounds were prepared as 100× stocks in DMSO and diluted into the aqueous environment. Kds were determined using an eleven point threefold serial dilutions. DMSO or control compounds were was added to control assays lacking a test compound. Primary screen assays were performed in polypropylene 384-well plates in a final volume of 20-40 μL, while Kd determinations were performed in polystyrene 96-well plates in a final volume of 135 μL. The assay plates were incubated at room temperature with shaking for 1 hour to allow the binding reactions to reach equilibrium, and the affinity beads were washed extensively with wash buffer (1×PBS, 0.05% Tween 20) to remove unbound protein. The beads were then resuspended in elution buffer (1×PBS, 0.05% Tween 20, 0.5 μM non-biotinylated affinity ligand) and incubated at room temperature with shaking for 30 min. The kinase concentration in the eluates was measured by quantitative PCR.
# KIT kinase = molecular target: T2, KIT kinase (Homo sapiens, UniProt P10721); assay: Competition binding assay, KIT Kd
# T2 construct: made in house; host or cells: T7 phage display or HEK-293 cells
# Experimental: as §1, §2
# FLT3 kinase = molecular target: T3, FLT3 kinase (Homo sapiens, UniProt P36888); assay: Competition binding assay, FLT3 Kd
# T3 construct: made in house; host or cells: T7 phage display or HEK-293 cells
# T3 sequence (P36888 27-993): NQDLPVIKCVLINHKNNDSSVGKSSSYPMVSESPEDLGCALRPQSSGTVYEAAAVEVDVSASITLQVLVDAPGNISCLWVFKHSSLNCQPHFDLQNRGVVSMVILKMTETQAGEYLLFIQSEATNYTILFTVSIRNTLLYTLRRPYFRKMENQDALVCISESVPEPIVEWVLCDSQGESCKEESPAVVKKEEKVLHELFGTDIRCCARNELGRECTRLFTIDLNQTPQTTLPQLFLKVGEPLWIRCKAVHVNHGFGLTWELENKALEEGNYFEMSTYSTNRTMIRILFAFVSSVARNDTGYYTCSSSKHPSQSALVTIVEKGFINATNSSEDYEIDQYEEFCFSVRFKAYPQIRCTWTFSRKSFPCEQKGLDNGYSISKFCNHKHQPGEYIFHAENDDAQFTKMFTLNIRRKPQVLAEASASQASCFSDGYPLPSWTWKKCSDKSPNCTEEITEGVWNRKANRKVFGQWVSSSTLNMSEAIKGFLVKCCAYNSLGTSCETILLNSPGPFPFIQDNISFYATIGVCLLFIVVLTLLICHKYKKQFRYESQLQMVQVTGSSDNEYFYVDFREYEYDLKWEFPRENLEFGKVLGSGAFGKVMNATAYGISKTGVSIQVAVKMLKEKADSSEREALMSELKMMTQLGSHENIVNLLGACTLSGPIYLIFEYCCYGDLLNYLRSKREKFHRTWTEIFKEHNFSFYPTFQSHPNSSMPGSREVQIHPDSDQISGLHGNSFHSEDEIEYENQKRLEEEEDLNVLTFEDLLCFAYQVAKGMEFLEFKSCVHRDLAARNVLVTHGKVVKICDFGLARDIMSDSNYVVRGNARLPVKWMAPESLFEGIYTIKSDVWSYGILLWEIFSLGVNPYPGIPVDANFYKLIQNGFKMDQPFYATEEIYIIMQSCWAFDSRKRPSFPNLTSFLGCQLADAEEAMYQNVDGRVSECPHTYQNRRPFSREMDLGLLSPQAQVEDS
# Experimental: as §1, §2
# T2 sequence (P10721 26-976): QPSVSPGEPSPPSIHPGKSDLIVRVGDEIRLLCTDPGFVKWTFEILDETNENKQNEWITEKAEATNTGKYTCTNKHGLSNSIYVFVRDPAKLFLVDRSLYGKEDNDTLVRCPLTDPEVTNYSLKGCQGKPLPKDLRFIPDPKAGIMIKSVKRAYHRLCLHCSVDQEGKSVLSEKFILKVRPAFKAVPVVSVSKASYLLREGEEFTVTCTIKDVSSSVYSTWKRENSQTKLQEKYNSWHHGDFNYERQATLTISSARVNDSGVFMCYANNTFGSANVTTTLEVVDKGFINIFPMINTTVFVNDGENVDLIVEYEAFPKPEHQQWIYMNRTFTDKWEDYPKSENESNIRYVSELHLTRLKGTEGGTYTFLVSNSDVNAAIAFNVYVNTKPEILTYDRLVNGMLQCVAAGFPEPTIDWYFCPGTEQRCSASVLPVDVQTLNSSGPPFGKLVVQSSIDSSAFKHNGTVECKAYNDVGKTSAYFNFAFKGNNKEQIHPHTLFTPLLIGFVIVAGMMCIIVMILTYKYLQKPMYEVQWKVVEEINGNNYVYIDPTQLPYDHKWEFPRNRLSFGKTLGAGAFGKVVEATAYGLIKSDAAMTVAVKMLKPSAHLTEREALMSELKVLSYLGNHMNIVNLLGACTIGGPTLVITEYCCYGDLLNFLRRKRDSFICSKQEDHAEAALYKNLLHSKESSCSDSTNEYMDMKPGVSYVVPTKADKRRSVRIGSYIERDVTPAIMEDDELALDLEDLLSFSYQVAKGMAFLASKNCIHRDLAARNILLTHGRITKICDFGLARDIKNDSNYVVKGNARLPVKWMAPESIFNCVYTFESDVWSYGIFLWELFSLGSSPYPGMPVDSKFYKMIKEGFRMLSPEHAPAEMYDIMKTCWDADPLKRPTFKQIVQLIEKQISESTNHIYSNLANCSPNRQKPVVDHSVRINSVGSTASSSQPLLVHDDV
# T1 sequence (P07333 20-972): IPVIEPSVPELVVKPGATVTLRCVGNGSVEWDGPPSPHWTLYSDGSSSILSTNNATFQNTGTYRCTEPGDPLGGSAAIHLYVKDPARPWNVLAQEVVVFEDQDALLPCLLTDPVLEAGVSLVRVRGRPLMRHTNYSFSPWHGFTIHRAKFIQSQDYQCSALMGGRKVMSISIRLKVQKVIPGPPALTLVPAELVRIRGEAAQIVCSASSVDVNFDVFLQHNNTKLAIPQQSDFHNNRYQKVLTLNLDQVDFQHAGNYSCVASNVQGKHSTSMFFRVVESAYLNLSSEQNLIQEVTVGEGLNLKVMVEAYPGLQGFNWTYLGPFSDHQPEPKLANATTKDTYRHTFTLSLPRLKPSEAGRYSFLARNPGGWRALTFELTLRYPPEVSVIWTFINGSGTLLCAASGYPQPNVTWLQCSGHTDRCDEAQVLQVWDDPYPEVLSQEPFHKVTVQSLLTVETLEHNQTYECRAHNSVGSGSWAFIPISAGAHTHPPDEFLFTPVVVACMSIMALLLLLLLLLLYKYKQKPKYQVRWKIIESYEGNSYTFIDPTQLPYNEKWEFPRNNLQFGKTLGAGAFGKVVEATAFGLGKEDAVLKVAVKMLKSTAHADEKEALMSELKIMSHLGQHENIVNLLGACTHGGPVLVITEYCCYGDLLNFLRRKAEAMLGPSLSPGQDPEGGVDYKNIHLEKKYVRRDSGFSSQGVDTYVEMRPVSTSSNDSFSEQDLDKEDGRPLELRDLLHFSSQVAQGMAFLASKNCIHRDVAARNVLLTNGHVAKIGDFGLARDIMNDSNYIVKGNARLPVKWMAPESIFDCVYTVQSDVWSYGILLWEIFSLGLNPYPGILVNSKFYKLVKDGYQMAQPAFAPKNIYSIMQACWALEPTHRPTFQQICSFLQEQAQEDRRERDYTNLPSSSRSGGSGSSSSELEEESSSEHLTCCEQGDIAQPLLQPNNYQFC
SMILES,IC50 (MV4-11 cells),Kd (CSF-1R kinase),Kd (KIT kinase),Kd (FLT3 kinase)
CC1(c2cc(NC(=O)Cc3ccc(-c4cnc(N)cc4F)cc3)no2)CC1 [Example 170],1 to 10 nM,≤ 10 nM,1 to 10 nM,≤ 1 nM
"CC(C)(C)c1cc(NC(=O)Cc2ccc(-c3cnc4c(c3)CCCN4)cc2)no1 [Example 120, 6-(4-(2-((5-(tert-butyl)isoxazol-3-yl)amino)-2-oxoethyl)phenyl)-1,2,3,4-tetrahydro-1,8-naphthyridin-1-ium methanesulfonate]",1 to 10 nM,≤ 10 nM,1 to 10 nM,≤ 1 nM
"Cc1nc(N)ccc1-c1ccc(CC(=O)Nc2cc(C(C)(C)C)on2)cc1 [Example 87, 5-(4-(2-(5-tert-butylisoxazol-3-ylamino)-2-oxoethyl)phenyl)-6-methylpyridin-2-aminium methanesulfonate]",10 to 100 nM,10 to 100 nM,1 to 10 nM,≤ 1 nM
CC(C)(C)c1cc(NC(=O)Cc2ccc(-c3cnc(N)c([S+]([O-])C(C)(C)C)c3)cc2)no1 (centres unmarked) [Example 179],1 to 10 nM,100 to 500 nM,1 to 10 nM,≤ 1 nM
CC(=O)OCC1(c2cc(NC(=O)Cc3ccc(-c4ccc(N)nc4)cc3)no2)CC1 [Example 169],10 to 100 nM,≤ 10 nM,1 to 10 nM,≤ 1 nM
CN1CC(=O)Nc2ncc(-c3ccc(CC(=O)Nc4cc(C(C)(C)C)on4)cc3)cc2C1 [Example 190],10 to 100 nM,100 to 500 nM,1 to 10 nM,1 to 10 nM
CC(F)(F)C1(c2cc(NC(=O)Cc3ccc(-c4cnc(N)cc4F)cc3)no2)CC1 [Example 184],≤ 1 nM,≤ 10 nM,1 to 10 nM,≤ 1 nM
"CC(CF)(CF)c1cc(NC(=O)Nc2ccc(-c3ccc(NCCN4CCOCC4)nc3)cc2)no1 [Example 37, 4-(2-(5-(4-(3-(5-(1,3-difluoro-2-methylpropan-2-yl)isoxazol-3-yl)ureido)phenyl)pyridin-2-ylamino)ethyl)morpholin-4-ium methanesulfonate]",1 to 10 nM,≤ 10 nM,≤ 1 nM,≤ 1 nM
CC(C)(C)c1cc(NC(=O)C(F)(F)c2ccc(-c3ccc(N)nc3)cc2)no1 [Example 178],1 to 10 nM,≤ 10 nM,1 to 10 nM,≤ 1 nM
"CC(C)(C)c1cc(NC(=O)Cc2ccc(-c3ccc(N)nc3)cc2)on1 [Example 84, 5-(4-(2-(3-tert-butylisoxazol-5-ylamino)-2-oxoethyl)phenyl)pyridin-2-aminium methanesulfonate]",≤ 1 nM,≤ 10 nM,1 to 10 nM,≤ 1 nM
"CC(C)(c1cc(NC(=O)Nc2ccc(-c3ccc(N)nc3)cc2)no1)C(F)(F)F [Example 35, methanesulfonate]",≤ 1 nM,≤ 10 nM,1 to 10 nM,≤ 1 nM

# Results, then the compound that gave them:
IC50 (MV4-11 cells),Kd (CSF-1R kinase),Kd (KIT kinase),Kd (FLT3 kinase),SMILES
100 to 500 nM,> 500 nM,10 to 100 nM,10 to 100 nM,"CC(C)(C)c1cc(NC(=O)Cc2ccc(-c3ccc(N)nc3C(F)(F)F)cc2)no1.CS(=O)(=O)O [Example 129, 5-(4-(2-(5-tert-butylisoxazol-3-ylamino)-2-oxoethyl)phenyl)-6-(trifluoromethybpyridin-2-aminium methanesulfonate]"
10 to 100 nM,10 to 100 nM,10 to 100 nM,1 to 10 nM,"CC(C(=O)Nc1cc(C(C)(C)C)on1)c1ccc(-c2ccc(N)nc2)cc1 (racemic) [Example 71, 2-(4-(6-aminopyridin-3-yl)phenyl)-N-(5-tert-butylisoxazol-3-yl) propanamide]"
1 to 10 nM,≤ 10 nM,≤ 1 nM,≤ 1 nM,"CN1CCCC1CCNc1ccc(-c2ccc(NC(=O)Nc3cc(C(C)(C)C)on3)cc2)cn1 (centres unmarked) [Example 29, 1-(5-tert-butylisoxazol-3-yl)-3-(4-(6-(2-(1-methylpyrrolidin-2-yl)ethylamino)pyridin-3-yl)phenyl)urea]"
10 to 100 nM,> 500 nM,1 to 10 nM,≤ 1 nM,CC(C)(C)c1cc(NC(=O)Cc2ccc(-c3cnc(N)c(S(=O)(=O)C(C)(C)C)c3)cc2)no1 [Example 176]
≤ 1 nM,≤ 10 nM,1 to 10 nM,≤ 1 nM,"CS(=O)(=O)O.Nc1ncc(-c2ccc(CC(=O)Nc3cc(C4(C(F)(F)F)CC4)on3)cc2)cc1F [Example 127, 3-fluoro-5-(4-(2-oxo-2-(5-(1-(trifluoromethybcyclopropybisoxazol-3-ylamino)ethyl)phenyl)pyridin-2-aminium methanesulfonate]"
1 to 10 nM,≤ 10 nM,≤ 1 nM,≤ 1 nM,"CC(C)(CO)c1cc(NC(=O)Nc2ccc(-c3ccc(N)nc3)cc2)no1 [Example 80, 1-(4-(6-aminopyridin-3-yl)phenyl)-3-(5-(1-hydroxy-2-methylpropan-2-yl)isoxazol-3-yl)urea]"
10 to 100 nM,≤ 10 nM,1 to 10 nM,≤ 1 nM,"CC(C)(CO)c1cc(NC(=O)Cc2ccc(-c3ccc(N)nc3)cc2)on1 [Example 83, 5-(4-(2-((3-(1-hydroxy-2-methylpropan-2-yl)isoxazol-5-yl)amino)-2-oxoethyl)phenyl)pyridin-2-aminium methanesulfonate]"
1 to 10 nM,≤ 10 nM,≤ 1 nM,≤ 1 nM,"O=C(Nc1ccc(-c2ccc(NCCN3CCOCC3)nc2)cc1)Nc1cc(C2(C(F)(F)F)CC2)on1 [Example 36, 4-(2-(5-(4-(3-(5-(1-(trifluoromethyl)cyclopropyl)isoxazol-3-yl)ureido)phenyl)pyridin-2-ylamino)ethyl)morpholin-4-ium methanesulfonate]"
≤ 1 nM,≤ 10 nM,1 to 10 nM,≤ 1 nM,"CC(C)(c1cc(NC(=O)Cc2ccc(-c3ccc(N)nc3)cc2)no1)C(F)(F)F [Example 72, 5-(4-(2-oxo-2-(5-(1,1,1-trifluoro-2-methylpropan-2-yl)isoxazol-3-ylamino)ethyl)phenyl)pyridin-2-aminium acetate]"
